Tests used:
PC9 ErlR cells = conditions: cells from erlotinib treated (ErlR) vs vehicle treated animal
Protocol: (§1) Cells were plated in 96-well plates, and after appropriate treatments, the cells were incubated in MTT solution (Sigma, M2128, 0.5 mg/mL in growth media) for two hours at 37° C. Then, the MTT solution was removed, and the blue crystalline precipitate in each well was dissolved in DMSO. Visible absorbance of each well at 560 nm was quantified using a microplate reader.

HCC827-ErlR = system: HCC827-ErlR
Protocol: as §1

[1] = system: tumor-associated macrophages (TAMs); experiment: Quantification of TAMs in xenograft tumor tissues; assay type: in vivo, nu/nu mice; conditions: erlotinib vs vehicle, after 50 days of treatment
Protocol: TAMs were isolated from tumor tissues as previously described (4). Snap frozen tumor tissues were thawed, minced, and dissociated in HBSS containing collagenase IV (Sigma, C5138, 0.5 mg/mL), hyaluronidase (Sigma, H2654, 0.1 mg/mL), dispase 11 (Roche, 04942078001, 0.6 U/mL), and DNase IV (Millipore, 260913-10MU, 5 U/mL) at 37° C. for 15 minutes. Cell suspensions were filtered through 70 μm cell strainer and washed with PBS. Single cell suspensions (10^6 cells/100 μL in 5% BSA in PBS) were incubated with Mouse BD Fc Block™ (BD Biosciences, 553142, 1:50) for 10 minutes at 4° C. and fluorescently labeled antibodies, CD11b (eBioscience, 17-0112-81, 1:100), Ly-6G (eBioscience, 25-5931, 1:100), CD206 (BioRad, MCA2235PET), and MHC11 (BD Biosciences, 562928) for one hour at 4° C. Flow cytometry was performed on BD LSRFortessa™, and the ratio of TAMs (CD11b-positive, Ly-6G-negative), M1 (CD206-negative, MHC11-positive within TAMs), and M2 (non-M1 population within TAMs) in the tumor tissue was calculated using the flow cytometry analysis program FlowJo™ (Treestar).

[2] = system: PC9 (β3−) subcutaneous xenograft; experiment: PC9 subcutaneous xenograft treated with erlotinib; assay type: in vivo, mice; conditions: erlotinib n=1 vs vehicle n=1, measured weekly
HCC827 (β3−) xenograft = experiment: Erlotinib resistant lung adenocarcinoma xenograft model (HCC827 subcutaneous); conditions: erlotinib-resistant tumors vs vehicle group
Protocol: Briefly, HCC827 (5×10^6 tumor cells in 100 μl of RPMI) cells were subcutaneously injected to the right flank of female nu/nu mice (8-10 weeks old). Tumors were measured twice per week with calipers (tumor volume (mm 3)=length×width×width/2). […] Tumor tissues were divided into three pieces for snap freezing, freezing in OCT compound (VWR, 25608-930), or 10% formalin fixation (Fisher Scientific, 23-313095) for further analyses.
Immunohistochemical staining was performed on unstained FFPE slides according to the manufacturers recommendations for the VECTASTAIN Elite ABC HRP Kit (Vector Laboratories, PK-6100). An anti-integrin β3 antibody (Cell Signaling, 13166, 1:200) and a biotinylated goat anti-rabbit antibody (Vector Laboratories, BA-1000, 1:200) were used. The stained tissues were imaged on NanoZoomer Slide Scanning System™ (Hamamatsu), and the β3-positive area fraction with respect to tumor tissue was calculated utilizing ImageJ (MH) (5).

[3] = system: HCC827 (β3−, GFP+, luciferase+) cells; experiment: Orthotopic lung adenocarcinoma model and CTC isolation; assay type: in vivo, nu/nu mice
Protocol: The pre-treatment group mice were sacrificed in week 8 for CTC analysis. […] Whole blood (0.5 mL/mouse) was collected in EDTA tubes, and PBMCs including CTCs were isolated using Lymphoprep™ ([…] Technologies, 85415) and SepMate™ ([…] Technologies, 07801) following the manufacturer's protocol. Isolated cells were washed with PBS, plated on poly-L-Lysine (Sigma, P1399) coated 8-well chamber plates, fixed with 4% PFA (VWR, AA43368-9M), and stained with DAPI (Life Technologies, D1306, 1 μg/mL in 1% BSA in PBS), LM609 (5 μg/mL in 1% BSA in PBS), and a fluorescently-labeled secondary antibody (Thermo, A21235, 1:500). The cells were analyzed utilizing Nikon Eclipse C2™ confocal microscope (Nikon). CTCs were defined as DAPI and GFP double positive cells. The numbers of αvβ3-positive and -negative CTCs per mouse were counted. After sacrificing the mice, the tumor mass volume in the lungs were also measured utilizing an OV100™ fluorescence imaging system (Olympus).

solid tumors = conditions: patients with solid tumors; cited from earlier work
integrin αvβ3 = integrin αvβ3 (Homo sapiens, UniProt P05106+P06756); conditions: in vitro; cited from earlier work
integrin αvβ3, sequence (P06756 31-889 limits assumed): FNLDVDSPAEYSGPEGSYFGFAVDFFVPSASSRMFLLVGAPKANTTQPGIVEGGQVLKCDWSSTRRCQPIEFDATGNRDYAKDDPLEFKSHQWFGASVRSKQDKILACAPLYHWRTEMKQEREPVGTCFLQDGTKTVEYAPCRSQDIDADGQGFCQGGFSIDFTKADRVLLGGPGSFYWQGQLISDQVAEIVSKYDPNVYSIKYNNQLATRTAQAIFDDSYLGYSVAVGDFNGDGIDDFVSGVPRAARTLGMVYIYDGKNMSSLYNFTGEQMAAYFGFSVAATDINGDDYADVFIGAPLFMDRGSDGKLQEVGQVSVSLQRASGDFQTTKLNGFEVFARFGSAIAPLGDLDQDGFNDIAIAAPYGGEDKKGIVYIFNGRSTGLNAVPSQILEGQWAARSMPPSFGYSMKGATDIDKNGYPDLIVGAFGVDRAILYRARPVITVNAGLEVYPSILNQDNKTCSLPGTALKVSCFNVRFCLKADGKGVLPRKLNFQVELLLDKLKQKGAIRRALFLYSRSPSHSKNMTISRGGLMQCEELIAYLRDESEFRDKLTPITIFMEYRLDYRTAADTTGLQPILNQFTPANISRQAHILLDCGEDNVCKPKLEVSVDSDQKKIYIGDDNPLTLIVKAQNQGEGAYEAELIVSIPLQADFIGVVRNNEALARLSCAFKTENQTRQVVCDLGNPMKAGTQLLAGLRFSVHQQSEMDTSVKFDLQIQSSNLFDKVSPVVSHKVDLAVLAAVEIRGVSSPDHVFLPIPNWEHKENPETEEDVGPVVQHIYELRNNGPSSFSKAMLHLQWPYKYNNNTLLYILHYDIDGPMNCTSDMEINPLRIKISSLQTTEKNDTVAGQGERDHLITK
integrin αvβ3, sequence (P06756 891-1048 limits assumed): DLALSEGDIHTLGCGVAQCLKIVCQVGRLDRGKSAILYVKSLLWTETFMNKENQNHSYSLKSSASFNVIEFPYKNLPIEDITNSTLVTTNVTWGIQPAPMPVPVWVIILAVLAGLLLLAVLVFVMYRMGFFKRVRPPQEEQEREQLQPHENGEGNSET
integrin αvβ3, sequence (P05106 27-788): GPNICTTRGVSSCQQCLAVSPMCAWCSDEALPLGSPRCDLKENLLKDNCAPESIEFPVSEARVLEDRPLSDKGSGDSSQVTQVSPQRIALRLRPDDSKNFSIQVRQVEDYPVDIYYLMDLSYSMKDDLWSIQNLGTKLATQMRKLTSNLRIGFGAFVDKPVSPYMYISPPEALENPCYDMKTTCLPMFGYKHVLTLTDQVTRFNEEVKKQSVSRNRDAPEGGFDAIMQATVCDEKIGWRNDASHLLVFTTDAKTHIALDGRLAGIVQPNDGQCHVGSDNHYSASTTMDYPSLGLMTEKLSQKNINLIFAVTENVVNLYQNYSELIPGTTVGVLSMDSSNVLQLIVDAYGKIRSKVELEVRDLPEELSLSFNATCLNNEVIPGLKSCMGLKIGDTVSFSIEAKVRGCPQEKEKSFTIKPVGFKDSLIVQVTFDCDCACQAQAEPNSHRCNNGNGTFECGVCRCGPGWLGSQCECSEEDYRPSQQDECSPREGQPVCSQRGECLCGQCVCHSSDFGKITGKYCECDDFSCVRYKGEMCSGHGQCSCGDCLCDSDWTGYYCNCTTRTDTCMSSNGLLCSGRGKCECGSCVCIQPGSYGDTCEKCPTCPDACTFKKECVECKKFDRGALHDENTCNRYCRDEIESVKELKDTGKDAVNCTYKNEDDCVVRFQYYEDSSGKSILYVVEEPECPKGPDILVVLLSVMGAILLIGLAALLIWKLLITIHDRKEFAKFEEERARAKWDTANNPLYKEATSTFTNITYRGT

Molecule: C=CC(=O)Nc1cc(Nc2nccc(-c3cn(C)c4ccccc34)n2)c(OC)cc1N(C)CCN(C)C [osimertinib]
- cell viability (MTT), sensitivity to EGFR inhibitor (PC9 ErlR cells): osimertinib resistant
- cell viability, sensitivity to EGFR inhibitor (HCC827-ErlR): also resistant

Molecule: C#Cc1cccc(Nc2ncnc3cc(OCCOC)c(OCCOC)cc23)c1 [erlotinib]
- number of TAMs, particularly M2 type, in tumors [1]: higher number of TAMs
- tumor growth [2]: gained resistance
- expression of integrin αvβ3 in tumors (HCC827 (β3−) xenograft): enriched in the erlotinib-resistant tumors compared to the vehicle group
- number of CTCs ([3]; erlotinib for 30 days vs pre-treatment): sharp increase in the number of CTCs
- αvβ3 status of CTCs ([3]; following erlotinib treatment): vast majority of the CTCs detected following erlotinib treatment were αvβ3 positive

B1: etaracizumab: a humanized and affinity-matured form of LM609 (antibody, chains of the INN, looked up, V domains shown)
VH: QVQLVESGGGVVQPGRSLRLSCAASGFTFSSYDMSWVRQAPGKGLEWVAKVSSGGGSTYYLDTVQGRFTISRDNSKNTLYLQMNSLRAEDTAVYYCARHLHGSFASWGQGTTVTVSS
VL: EIVLTQSPATLSLSPGERATLSCQASQSISNFLHWYQQRPGQAPRLLIRYRSQSISGIPARFSGSGSGTDFTLTISSLEPEDFAVYYCQQSGSWPLTFGGGTKVEIK
- clinical activity (solid tumors): showed clinical activity in some patients
- antibody-dependent cell mediated cytotoxicity (ADCC) (integrin αvβ3): reported to mediate antibody-dependent cell mediated cytotoxicity (ADCC) in vitro

Reference: patent US20240067733A1, “COMPOSITIONS AND METHODS FOR TARGETING AND KILLING ALPHA-V BETA-3-POSITIVE CANCER STEM CELLS (CSCS) AND TREATING DRUG RESISTANT CANCERS” (THE REGENTS OF THE UNIVERSITY OF CALIFORNIA, priority 2017, published 2024)
